From PubChem BioAssay AID1508612

Assay: passive permeability, PAMPA, ADME assay (AID 1508612)
Conditions: pH 7.4, 30.0 min, 50.0 µM

Row | SMILES | Papp [×10⁻⁶ cm/s]
1 | Cc1cnc(CNc2nc(-c3cccc(NS(C)(=O)=O)c3)nc3ccccc23)cn1 | > 1000
2 | CN1CCN(CCCN2c3ccccc3Sc3ccc(S(=O)(=O)N(C)C)cc32)CC1 | > 1000
3 | Cc1noc([C@@H]2CN(C(=O)c3nn(C)c4ccccc34)C[C@H]2CO)n1 | 84.2
4 | O=C(NCCc1ccc(OCC(F)(F)F)c(OCC(F)(F)F)c1)c1cc2sccc2n1Cc1ccccc1 | 24.5
5 | Cn1cncc1[C@@](N)(c1ccc(Cl)cc1)c1ccc2c(c1)c(-c1cccc(Cl)c1)cc(=O)n2C | > 1000
6 | COc1cncc(Nc2ncc(-c3cccc(N(C)C)c3)c3c2OCC3)c1 | < 1
7 | CC1CCCCN1c1ncnc(N)c1[N+](=O)[O-] (stereo not given) | 269
8 | O=C(c1ccco1)N1CCN(c2nc(-c3ccc(Br)cc3)cs2)CC1 | 4.09
9 | CC(=O)c1c(C)[nH]c(C(=O)Nc2cccc([S+](=O)([O-])Nc3ccccc3C)c2)c1C | 628
10 | COc1cccc(CN(C)c2ccc([S+](=O)([O-])Nc3nccs3)cc2)c1O | 868
11 | C[C@]1(CO)CN(c2cc(C(=O)Nc3ccc4c(c3)-c3c(c(C(N)=O)nn3-c3ccc(F)cc3)CC4)c(Cl)cn2)C[C@@]1(C)CO | 18.5
12 | CC(=O)Nc1ccc(-c2csc(N3CCC(C(N)=O)CC3)n2)cc1 | < 1
13 | Cc1cccc2nc(NC3=NC(c4[nH]ncc4Cl)C4=C(CCCC4=O)N3)oc12 (stereo not given) | 624
14 | Cc1cc(C)nc(NC(=S)N2CCN(c3nccc(C(F)(F)F)n3)CC2)c1 | > 1000
15 | Cc1ccc(S(=O)(=O)Nc2cnccc2C(=O)Nc2nc(-c3ccccc3)cs2)cc1 | 724
16 | CC(=O)Nc1ncc(S(=O)(=O)N2CCOCC2)s1 | 37.9
17 | Cc1n[nH]c(C)c1CCc1nc2c3ccccc3nc(SCC(=O)Nc3ccc(F)cc3)n2n1 | 122
18 | COc1cccc(CNc2ccc(S(=O)(=O)Nc3cccc(N4CCNCC4)c3)cc2)c1O | 16
19 | Cc1ccc(CC(=O)Nc2nc(-c3ccc4c(c3)CCN4C(=O)c3ccccc3C)c(C)s2)cc1C | 222
20 | Cc1ccc(-c2cc(C(=O)Nc3ccc(-n4cncn4)cc3)c3ccccc3n2)cc1C | < 1
21 | CC(C)(O)/C=C\C(=O)[C@](C)(O)[C@H]1[C@H](O)C[C@]2(C)[C@@H]3CC=C4[C@@H](C=C(O)C(=O)C4(C)C)[C@]3(C)C(=O)C[C@@]12C | 184
22 | COc1cccc(CNc2ccc(S(=O)(=O)Nc3cccnc3)cc2)c1O | 632
23 | O=C(O)c1ccc(O)c2ncc(N3CCCN(CCc4cccc5ccccc45)CC3)cc12 | 974
24 | CCOC(=O)c1ccc(NC(=O)c2sc3nc4c(cc3c2N)N2CCC4CC2)cc1 | 928
25 | N#Cc1nc(-c2cccc3ccccc23)oc1Nc1ccccc1 | 821

Row | SMILES | Papp [×10⁻⁶ cm/s]
26 | O=[N+]([O-])c1cccc(CSc2nc3ncc(Br)cc3[nH]2)c1 | 550
27 | Cc1ccccc1C(=O)Nc1sc2c(c1C(=O)NCc1ccco1)CCC(C(C)(C)C)C2 (stereo not given) | 167
28 | COc1cccc(NC(=S)N2CCN(c3cccc(C(F)(F)F)c3)CC2)n1 | 735
29 | CCOC(=O)c1ccnc(CNCC(=O)N(CC)CCN(C)C)c1 | 40.4
30 | Cc1ccc(S(=O)(=O)Nc2cnccc2C(=O)NCc2ccccc2)cc1 | 27.7
31 | COc1ccc(C(=O)NC2CCCc3c2[nH]c2ccccc32)cc1OC (stereo not given) | 38.1
32 | Cc1c(Cl)cccc1NC(=O)CNS(=O)(=O)c1cccs1 | 115
33 | COc1ccc(-n2cnc3cc(C(=O)N4CCCCC4)ccc32)cc1 | 624
34 | c1cc(OCCN2CCCCC2)cc(-c2n[nH]c3ccc(-c4ncn[nH]4)cc23)c1 | < 1
35 | CC(=O)Nc1ccc(S(=O)(=O)Nc2nccs2)cc1 | < 1
36 | COc1cc2cc(CN3CCC(N(C)C)C3)c(-c3cccc(Cl)c3)nc2cc1OC (stereo not given) | > 1000
37 | CCOC(=O)c1nn(-c2ccccc2)c(=O)c2c(N)scc12 | > 1000
38 | CSc1ccccc1N1CCN(CCCCCC(=O)NC2CCCc3ccccc32)CC1 (stereo not given) | > 1000
39 | O=C(O)c1c(Sc2ccccc2)c2cc(Cl)ccc2n1Cc1ccc(Cl)cc1 | 709
40 | Cc1cc(SCc2sc(-c3ccc(C(F)(F)F)c(F)c3)nc2C)ccc1OCC(=O)O | 417
41 | Cc1noc(C)c1Cc1ccc(C(=O)N2CCc3c(nc4cc(-c5ccccc5)[nH]n4c3=O)C2)o1 | 7.01
42 | NC(=O)c1cccc(-c2cc(Nc3ccc(OC(F)(F)F)cc3)ncn2)c1 | 579
43 | O=C(Cc1ccc(Cl)c(Cl)c1)Nc1ccc(S(=O)(=O)Nc2ccon2)cc1 | 9.17
44 | N#Cc1cnccc1-c1nc(Nc2ccc(F)c(F)c2)c2ccccc2n1 | 269
45 | COc1ccccc1CNc1ccc(S(=O)(=O)Nc2nccs2)cc1 | 512
46 | Cc1noc(C)c1-c1ccc2ncnc(NC(C)c3ccccc3)c2c1 (stereo not given) | > 1000
47 | Cc1cccc(N(C)c2nc3ccccc3c3nnc(C)n23)c1 | > 1000
48 | COC(=O)c1ccc([C@H]2c3[nH]c4ccccc4c3C[C@H](C(=O)OC)N2C(=O)CCl)cc1 | > 1000
49 | CCc1ccc(C2N=C(N)Nc3nc4ccccc4n32)cc1 (stereo not given) | 4.65
50 | COC(=O)c1ccc(NS(=O)(=O)c2c(C)nc3sccn3c2=O)cc1 | 333

Row | SMILES | Papp [×10⁻⁶ cm/s]
51 | COCCNc1ncnc2onc(-c3ccc(F)cc3)c12 | 458
52 | CNc1oc(-c2cccc3ccccc23)nc1C(=O)OC | > 1000
53 | O=C1CCCC2=C1C(c1ccncc1Cl)N=C(Nc1nc3ccccc3o1)N2 (stereo not given) | 897
54 | Nc1cc2nc3ccccc3oc-2cc1=O | 106
55 | CNC(=O)c1cccc(-c2cnc(Nc3cccc(C(F)(F)F)c3)c3c2CCO3)c1 | 58.9
56 | Cc1noc(C)c1-c1cc(-c2ccc3c(c2)C(=O)NC3)cn2cncc12 | 143
57 | Cc1ccc(S(=O)(=O)Nc2cnccc2C(=O)Nc2cccc3ccccc23)cc1 | 288
58 | CC(Nc1nc(N2CCN(S(C)(=O)=O)CC2)nc2ccccc12)c1ccccc1 (stereo not given) | > 1000
59 | COc1cccc(-c2nc(-c3c(C)noc3C)cc3[nH]c(C)cc23)c1OC | > 1000
60 | COc1cc(C(=O)NC2CCCc3c2[nH]c2c(Cl)cccc32)cc(OC)c1OC (stereo not given) | 593
61 | CCOc1ccc(S(=O)(=O)NCc2cccnc2)cc1NC(=O)c1ccccc1F | 99
62 | O=C(Cc1ccc2ccccc2c1)Nc1ccc(S(=O)(=O)Nc2nccs2)cc1 | 16.9
63 | Cc1cc(C)nc(NC(=S)N2CCN(Cc3ccc(C(F)(F)F)cc3)CC2)c1 | > 1000
64 | COc1ccc2nc(C)cc(Nc3ccc(Cl)c(Cl)c3)c2c1 | > 1000
65 | C[C@@]12O[C@@H](C[C@]1(O)CO)n1c3ccccc3c3c4c(c5c6ccccc6n2c5c31)CNC4=O | 7.06
66 | COc1cnccc1-c1nc(Nc2ccc(F)c(F)c2)c2ccccc2n1 | 3.6
67 | O=C(CCS(=O)(=O)c1nc(-c2cccs2)cc(C(F)(F)F)n1)Nc1ccc(OC(F)(F)F)cc1 | 5.76
68 | Cc1ccc(NS(=O)(=O)c2ccc3c(c2)NC(=O)CO3)cc1C | 706
69 | Cc1cc(-c2nnc3n2CCCCC3)c(C)n1-c1ccc(C(C)(C)C)cc1 | > 1000
70 | COc1ccccc1-c1cc2c(ccn2C)c(C(=O)NCC2CCN(C)C(=O)C2)n1 (stereo not given) | 317
71 | Cc1ccc(S(=O)(=O)Nc2ccccc2C(=O)Nc2cnc(-c3ccccc3)cn2)cc1 | > 1000
72 | NC(=O)C1CCN(c2nc(-c3ccc4ccccc4c3)cs2)CC1 | 406
73 | CN(C)C(=O)c1cccc(-c2csc(N3CCC(C(N)=O)CC3)n2)c1 | 30.5
74 | Cc1ccc(NS(=O)(=O)c2cc3c(cc2N[C@H](C)CO)NC(=O)CC3)cc1C | 273
75 | COc1ccc(NC(=O)c2c(C)cccc2C)cc1[S+](=O)([O-])N1CCCCCC1 | 738
